In US20230002359A1, “PESTICIDALLY ACTIVE FUSED BICYCLIC HETEROAROMATIC COMPOUNDS” (priority 2019, published 2023):

Key:
Type in all cases: in vivo
[1] = test system: Euschistus heros (Neotropical Brown Stink Bug); test: Example B2: Euschistus heros (neotropical brown stink bug), soybean leaves sprayed, N2 nymphs; settings: 120 h, application rate of 200 ppm, 5 days after infestation, N2 nymphs, read-out: control in at least one of the two categories (mortality or growth inhibition)
Description: Soybean leaves on agar in 24-well microtiter plates were sprayed with aqueous test solutions prepared from 10′000 ppm DMSO stock solutions. After drying the leaves were infested with N2 nymphs. The samples were assessed for mortality and growth inhibition in comparison to untreated samples 5 days after infestation.

[2] = test system: Myzus persicae (Green Peach Aphid); test: Example B6: Myzus persicae (green peach aphid) intrinsic activity, sucrose solution; settings: 120 h, test rate of 12 ppm, 5 days after infestation, intrinsic activity, read-out: mortality
Description: Test compounds prepared from 10′000 ppm DMSO stock solutions were applied by pipette into 24-well microtiter plates and mixed with sucrose solution. The plates were closed with a stretched Parafilm. A plastic stencil with 24 holes was placed onto the plate and infested pea seedlings were placed directly on the Parafilm. The infested plate was closed with a gel blotting paper and another plastic stencil and then turned upside down. The samples were assessed for mortality 5 days after infestation.

[3] = test system: Plutella xylostella (Diamond Back Moth); test: Example B4: Plutella xylostella (diamond back moth), artificial diet, eggs, 24-well; settings: 192 h, application rate of 200 ppm, 8 days after infestation, eggs, read-out: control in at least one of the two categories (mortality or growth inhibition)
Description: 24-well microtiter plates with artificial diet were treated with aqueous test solutions prepared from 10′000 ppm DMSO stock solutions by pipetting. After drying, Plutella eggs were pipetted through a plastic stencil onto a gel blotting paper and the plate was closed with it. The samples were assessed for mortality and growth inhibition in comparison to untreated samples 8 days after infestation.

[4] = test system: Chilo suppressalis (Striped Rice Stemborer); test: Example B3: Chilo suppressalis (striped rice stemborer), artificial diet, L2 larvae; settings: 144 h, application rate of 200 ppm, 6 days after infestation, L2 larvae, read-out: control in at least one of the three categories (mortality, anti-feedant effect, or growth inhibition)
Outline: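 Artificial diet treated with aqueous dilutions of DMSO stocks (10'000 ppm stock), dried, then infested with 6-8 L2 larvae per well. Mortality, anti-feeding and growth inhibition scored against untreated samples 6 days after infestation. Control counted when any category exceeds untreated.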

[5] = test system: Diabrotica Balteata (Corn Root Worm); test: Example B1: Diabrotica balteata (corn root worm), maize sprouts sprayed, L2 larvae; settings: 96 h, application rate of 200 ppm, 4 days after infestation, L2 larvae, read-out: control in at least one of the two categories (mortality or growth inhibition)
Outline: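 Spray test: maize sprouts on agar, aqueous dilutions of 10′000 ppm DMSO stock; after drying, 6–10 L2 larvae/well. Read-out at 4 d post-infestation: mortality and growth inhibition vs untreated.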

[6] = test system: Spodoptera littoralis (Egyptian Cotton Leaf Worm); test: Example B7: Spodoptera littoralis (Egyptian cotton leaf worm), cotton leaf discs sprayed, L1 larvae; settings: foliar, 72 h, application rate of 200 ppm, 3 days after infestation, L1 larvae, read-out: control in at least one of the three categories (mortality, anti-feedant effect, or growth inhibition)
Outline: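 Cotton leaf discs on agar were sprayed with aqueous test solutions made from 10′000 ppm DMSO stocks, dried, then infested with five L1 larvae. Mortality, anti-feeding effect and growth inhibition were scored against untreated discs 3 days after infestation; control means any category exceeds untreated.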

CC(c1ncnn1-c1ncccn1)N(C)c1ncnc2c(Br)cc(C(F)(F)F)cc12 (centres unmarked) [P.71, 8-bromo-N-methyl-N-[1-(2-pyrimidin-2-yl-1,2,4-triazol-3-yl)ethyl]-6-(trifluoromethyl)quinazolin-4-amine]
≥ 80%: percent control (mortality or growth inhibition) at 200 ppm [1] | mortality at 12 ppm [2] | percent control (mortality or growth inhibition) at 200 ppm [3] | percent control (mortality, anti-feedant effect or growth inhibition) at 200 ppm [4] | percent control (mortality or growth inhibition) at 200 ppm [5]

C[C@@H](c1ncnn1-c1ncccn1)N(C)c1ncnc2c(C(F)(F)F)cc(SC(F)(F)F)cc12 [P.84, N-methyl-N-[(1S)-1-(2-pyrimidin-2-yl-1,2,4-triazol-3-yl)ethyl]-8-(trifluoromethyl)-6-(trifluoromethylsulfanyl) quinazolin-4-amine]
≥ 80%: percent control (mortality or growth inhibition) at 200 ppm [1] | mortality at 12 ppm [2] | percent control (mortality or growth inhibition) at 200 ppm [3] | percent control (mortality, anti-feedant effect or growth inhibition) at 200 ppm [4] | percent control (mortality or growth inhibition) at 200 ppm [5]

C[C@@H](c1ncnn1-c1ncccn1)N(C)c1ncnc2c(C(F)(F)F)cc(C(F)(F)C3CC3)cc12 [P.276, 6-[cyclopropyl(difluoro)meth-yl]-N-methyl-N-[(1S)-1-(2-pyrimidin-2-yl-1,2,4-triazol-3-yl)ethyl]-8-(trifluromethyl)quinazolin-4-amine]
≥ 80%: percent control (mortality or growth inhibition) at 200 ppm [1] | percent control (mortality or growth inhibition) at 200 ppm [3] | percent control (mortality, anti-feedant effect or growth inhibition) at 200 ppm [4] | percent control (mortality or growth inhibition) at 200 ppm [5] | percent control (mortality, anti-feedant effect or growth inhibition) at 200 ppm [6]

CC(c1ncnn1-c1ccc(C#N)cn1)N(Cc1ccccc1)c1ncnc2c(C(F)(F)F)cc(C(F)(F)F)cc12 (centres unmarked) [P.8, 6-[5-[1-[benzyl-[6,8-bis(trifluoromethyl)quina-zolin-4-yl]amino]ethyl]-1,2,4-triazol-1-yl]pyridine-3-carbonitrile]
≥ 80%: percent control (mortality or growth inhibition) at 200 ppm [1] | percent control (mortality or growth inhibition) at 200 ppm [3] | percent control (mortality, anti-feedant effect or growth inhibition) at 200 ppm [4] | percent control (mortality or growth inhibition) at 200 ppm [5] | percent control (mortality, anti-feedant effect or growth inhibition) at 200 ppm [6]

C[C@H](Nc1ncnc2c(C(F)(F)F)cc(I)cc12)c1ncnn1-c1ncccn1 [P.87, 6-iodo-N-[(1S)-1-(2-pyrimidin-2-yl-1,2,4-triazol-3-yl)ethyl]-8-(trifluoromethyl)quinazolin-4-amine]
≥ 80%: percent control (mortality or growth inhibition) at 200 ppm [1] | mortality at 12 ppm [2] | percent control (mortality or growth inhibition) at 200 ppm [3] | percent control (mortality, anti-feedant effect or growth inhibition) at 200 ppm [4] | percent control (mortality or growth inhibition) at 200 ppm [5]

CC(c1ncnn1-c1ccc(C#N)cn1)N(C)c1ncnc2c(OC(F)(F)F)cc(Br)cc12 (centres unmarked) [P.216, 6-[5-[1-[[6-bromo-8-(trifluoromethoxy)quinazo-lin-4-yl]-methyl-amino]ethyl]-1,2,4-triazol-1-yl]pyridine-3-carbonitrile]
≥ 80%: percent control (mortality or growth inhibition) at 200 ppm [1] | percent control (mortality or growth inhibition) at 200 ppm [3] | percent control (mortality, anti-feedant effect or growth inhibition) at 200 ppm [4] | percent control (mortality or growth inhibition) at 200 ppm [5] | percent control (mortality, anti-feedant effect or growth inhibition) at 200 ppm [6]

CC(Nc1ncnc2c(Br)cc(C(F)(F)F)cc12)c1ncnn1-c1ncccn1 (centres unmarked) [P.47, 8-bromo-N-[1-(2-pyrimidin-2-yl-1,2,4-triazol-3-yl)ethyl]-6-(trifluoromethyl)quinazolin-4-amine]
≥ 80%: percent control (mortality or growth inhibition) at 200 ppm [1] | percent control (mortality or growth inhibition) at 200 ppm [3] | percent control (mortality, anti-feedant effect or growth inhibition) at 200 ppm [4] | percent control (mortality or growth inhibition) at 200 ppm [5] | percent control (mortality, anti-feedant effect or growth inhibition) at 200 ppm [6]
